{
  "source": "patent US20170234881A1",
  "about": "“METHODS OF DIAGNOSING AND TREATING CANCER” (INSERM ( INSTITUT NATIONAL DE LA SANTÉ ET DE LA RECHERCHE …, priority 2014, published 2017)",
  "key": {"shHSD2 MCF7 cells": {"system": "shHSD2 MCF7 cells", "assay": "Proliferation of shHSD2 MCF7 cells (BrDU)", "format": "cell-based, human", "settings": "sh11HSD2 MCF7 cells, 24 h; OCDO 5 μM; cortisone increasing concentrations", "protocol": "(§1) FIG. 7. Knock-down of 11βHSD2 decreases cell proliferation, invasion and survival in MCF7 cells as well as tumor growth and OCDO reverses these effects. shC or shHSD2 MCF7 cells were analyzed as followed: (A) The proliferation of sh-C or shHSD2 cells treated or not with OCDO 5 μM 24 h was measured using quantification of DNA BrDU incorporation as described in FIG. 2A. (B) The proliferation of sh-C or shHSD2 cells treated or not with increasing concentration of cortisone for 24 h was measured as in (A). (C) The invasiveness of sh-C or shHSD2 cells treated or not with OCDO 5 μM for 72 h was assayed using matrigel-coated filters. (D) the formation of colony by sh-C or shHSD2 cells treated or not with OCDO 1 μM was quantified as described in FIG. 6F. […] Animals were monitored for tumor growth twice a week. […] (F) Mean (±s.e.m) of Ki67 positive cell number determined from IHC staining of shC or shHSD2 MCF7 tumor sections from (E), n=8, *P<0.05 (Student's t-test) using HistoQuant, Pannoramic Viewer (3DHistech).\nMCF7 or HEK293T cells (5×10^6 cells) were transfected with 5 μg of the indicated plasmid using the NEON Transfection System and according to the manufacturer's recommendations. […] Several clones were analyzed by immunoblot analysis and real time RT-qPCR for the knock down of the expression of the protein of interest. […]"}, "sh11HSD2 tumors": {"system": "sh11HSD2 tumors", "assay": "Growth of sh11HSD2 MCF7 tumors xenografted in mice", "format": "in vivo", "protocol": "as §1\nExponentially growing MCF7, ShMCF7, E0771, MDA-MB231, MDA-MB468 and TS/A cells were collected, washed twice in PBS and resuspended in PBS. […] Animals were examined daily, and body weights were measured twice per week. In all the experiments, the tumor volume was determined by direct measurement with a caliper and was calculated using the formula (width^2×length)/2. […]"}},
  "data": [
    {"compound": "CC(C)CCC[C@@H](C)[C@H]1CC[C@H]2[C@@H]3CC(=O)[C@@]4(O)C[C@@H](O)CC[C@]4(C)[C@H]3CC[C@]12C", "note": "[OCDO, 6-oxo-cholestan-3β,5α-diol]", "values": [
      {"measurement": "effect on the inhibition of cell proliferation induced by 11βHSD2 knock-down", "setting": "shHSD2 MCF7 cells", "value": "able to reverse the inhibition of cell proliferation"},
      {"measurement": "effect on growth of sh11HSD2 tumors", "setting": "sh11HSD2 tumors; immunodeficient mice, subcutaneous OCDO 15 μg/kg, 5 days/week", "value": "reversed the growth inhibition of sh11HSD2 tumors to a level similar to the growth of shC tumors"},
      {"measurement": "cell proliferation by KI67 staining of tumors", "setting": "sh11HSD2 tumors; sh11HSD2 MCF7 tumors, OCDO treatment", "value": "reversed the growth inhibition of sh11HSD2 tumors"}
    ]}
  ]
}
